{"source": "ChEMBL document CHEMBL1136106", "about": "“Synthesis and biological activities of 1-pyridylisoquinoline and 1-pyridyldihydroisoquinoline derivatives as PDE4 inhibitors” (Bioorg Med Chem Lett, 2003)", "key": {"Phosphodiesterase 4 [1]": {"molecular_target": "T1, Phosphodiesterase 4 (Homo sapiens, UniProt P27815+Q08499+Q07343+Q08493)", "test": "Inhibition of phosphodiesterase 4", "assay_type": "protein assay"}, "Phosphodiesterase 4 [2]": {"molecular_target": "T1, Phosphodiesterase 4", "test": "Inhibition of rolipram binding to phosphodiesterase 4", "assay_type": "protein assay"}, "Mus musculus": {"organism": "Mus musculus", "test": "Inhibition of LPS-induced TNF-alpha production in mice after 30 min peroral dose", "assay_type": "functional", "conditions": "po, 0.5 h"}}}
{"smiles": "COc1cc2cc(CO)nc(-c3ccnc(-n4nc(-c5cccnc5)c5ccccc5c4=O)c3)c2cc1OC.Cl", "values": [{"measurement": "IC50", "setting": "Phosphodiesterase 4 [1]", "result": 0.6, "unit": "nM"}, {"measurement": "Ki", "setting": "Phosphodiesterase 4 [2]", "result": 1.4, "unit": "nM"}]}
{"smiles": "COc1cc2c(cc1OC)C(c1ccnc(-n3nc(-c4cccnc4)c4ccccc4c3=O)c1)=N[C@H](CO)C2.Cl", "values": [{"measurement": "IC50", "setting": "Phosphodiesterase 4 [1]", "result": 1, "unit": "nM"}, {"measurement": "Ki", "setting": "Phosphodiesterase 4 [2]", "result": 6.5, "unit": "nM"}, {"measurement": "ED50", "setting": "Mus musculus", "result": 0.52, "unit": "mg/kg"}]}
{"smiles": "COc1ccc(C2CNC(=O)C2)cc1OC1CCCC1", "note": "(stereo not drawn) [ROLIPRAM]", "values": [{"measurement": "ED50", "setting": "Mus musculus", "result": 2.6, "unit": "mg/kg"}]}
{"smiles": "COc1ccc(C(=O)Nc2c(Cl)cncc2Cl)cc1OC1CCCC1", "values": [{"measurement": "ED50", "setting": "Mus musculus", "result": 0.72, "unit": "mg/kg"}]}
{"smiles": "COc1cc2c(cc1OC)C(c1ccnc(-n3nc(Cc4cccnc4)c4ccccc4c3=O)c1)=N[C@H](CO)C2.Cl", "values": [{"measurement": "IC50", "setting": "Phosphodiesterase 4 [1]", "result": 2, "unit": "nM"}, {"measurement": "Ki", "setting": "Phosphodiesterase 4 [2]", "result": 3.1, "unit": "nM"}]}
{"smiles": "COc1cc2c(cc1OC)C(c1ccnc(-n3nc(-c4cncnc4)c4ccccc4c3=O)c1)=N[C@H](CO)C2.Cl", "values": [{"measurement": "IC50", "setting": "Phosphodiesterase 4 [1]", "result": 3, "unit": "nM"}, {"measurement": "Ki", "setting": "Phosphodiesterase 4 [2]", "result": 5.4, "unit": "nM"}]}
{"smiles": "COc1cc2cc(CO)nc(-c3ccnc(-n4nc(-c5nccs5)c5ccccc5c4=O)c3)c2cc1OC.Cl", "values": [{"measurement": "IC50", "setting": "Phosphodiesterase 4 [1]", "result": 0.3, "unit": "nM"}, {"measurement": "Ki", "setting": "Phosphodiesterase 4 [2]", "result": 1.7, "unit": "nM"}, {"measurement": "ED50", "setting": "Mus musculus", "result": 0.26, "unit": "mg/kg"}]}
{"smiles": "COc1cc2nc(CO)c(CO)c(-c3ccnc(-n4nc(-c5cccnc5)c5ccccc5c4=O)c3)c2cc1OC.Cl", "values": [{"measurement": "IC50", "setting": "Phosphodiesterase 4 [1]", "result": 70, "unit": "nM"}, {"measurement": "Ki", "setting": "Phosphodiesterase 4 [2]", "result": 120, "unit": "nM"}]}
{"smiles": "COc1cc2cc(CO)nc(-c3ccnc(-n4nc(-c5cccs5)c5ccccc5c4=O)c3)c2cc1OC.Cl", "values": [{"measurement": "IC50", "setting": "Phosphodiesterase 4 [1]", "result": 0.3, "unit": "nM"}, {"measurement": "Ki", "setting": "Phosphodiesterase 4 [2]", "result": 1.4, "unit": "nM"}, {"measurement": "ED50", "setting": "Mus musculus", "result": 1.6, "unit": "mg/kg"}]}
{"smiles": "COc1cc2c(cc1OC)C(c1ccnc(-n3ccc4c(OCc5cccnc5)cccc4c3=O)c1)=N[C@H](CO)C2.Cl", "values": [{"measurement": "IC50", "setting": "Phosphodiesterase 4 [1]", "result": 0.4, "unit": "nM"}, {"measurement": "Ki", "setting": "Phosphodiesterase 4 [2]", "result": 1.5, "unit": "nM"}, {"measurement": "ED50", "setting": "Mus musculus", "result": 2.4, "unit": "mg/kg"}]}
{"smiles": "COc1cc2cc(CO)c(CO)c(-c3ccnc(-n4nc(-c5cccnc5)c5ccccc5c4=O)c3)c2cc1OC.Cl", "values": [{"measurement": "IC50", "setting": "Phosphodiesterase 4 [1]", "result": 0.7, "unit": "nM"}, {"measurement": "ED50", "setting": "Mus musculus", "result": 1.2, "unit": "mg/kg"}]}
{"smiles": "COc1cc2cc(CO)cc(-c3ccnc(-n4nc(-c5cccnc5)c5ccccc5c4=O)c3)c2cc1OC.Cl", "values": [{"measurement": "Ki", "setting": "Phosphodiesterase 4 [2]", "result": 3, "unit": "nM"}]}
{"smiles": "COc1cc2c(cc1OC)C(c1ccnc(-n3ccc4c(OCCN5CCOCC5)cccc4c3=O)c1)=N[C@H](CO)C2.Cl", "values": [{"measurement": "IC50", "setting": "Phosphodiesterase 4 [1]", "result": 0.5, "unit": "nM"}, {"measurement": "Ki", "setting": "Phosphodiesterase 4 [2]", "result": 1.8, "unit": "nM"}, {"measurement": "ED50", "setting": "Mus musculus", "result": 0.13, "unit": "mg/kg"}]}
